Read-outs that look alike come from different tables or passages of the source.
What was measured:
[1] = tested on: 60 human tumor cell lines panel; assay: NCI-60 anticancer screen, whole panel (means and ranges over the cell lines); type: cell-based; details: Homo sapiens, 48 h
HL-60(TB) = assay: NCI-60 anticancer screen (SRB; single dose and five doses); details: Homo sapiens, HL-60, 48 h, read-out: Growth Percentage
K-562 = assay: as above; details: Homo sapiens, K562, 48 h, read-out: Growth Percentage
MOLT-4 = assay: as above; details: Homo sapiens, MOLT-4, 48 h, read-out: Growth Percentage
RPMI-8226 = assay: as above; details: Homo sapiens, RPMI-8226, 48 h, read-out: Growth Percentage
SR = assay: as above; details: Homo sapiens, 48 h, read-out: Growth Percentage
A549/ATCC = assay: as above; details: Homo sapiens, A549, 48 h, read-out: Growth Percentage
HOP-62 = assay: as above; details: Homo sapiens, HOP-62, 48 h, read-out: Growth Percentage
HOP-92 = assay: as above; details: Homo sapiens, HOP-92, 48 h, read-out: Growth Percentage
COLO 205 = assay: as above; details: Homo sapiens, COLO 205, 48 h, read-out: Growth Percentage
HCT-15 = assay: as above; details: Homo sapiens, HCT-15, 48 h, read-out: Growth Percentage
HT29 = assay: as above; details: Homo sapiens, HT-29, 48 h, read-out: Growth Percentage
KM12 = assay: as above; details: Homo sapiens, KM12, 48 h, read-out: Growth Percentage
SF-268 = assay: as above; details: Homo sapiens, SF-268, 48 h, read-out: Growth Percentage
LOX IMVI = assay: as above; details: Homo sapiens, 48 h, read-out: Growth Percentage
MALME-3M = assay: as above; details: Homo sapiens, 48 h, read-out: Growth Percentage
SK-MEL-5 = assay: as above; details: Homo sapiens, SK-MEL-5, 48 h, read-out: Growth Percentage
UACC-62 = assay: as above; details: Homo sapiens, UACC-62, 48 h, read-out: Growth Percentage
IGROV1 = assay: as above; details: Homo sapiens, IGROV-1, 48 h, read-out: Growth Percentage
NCI/ADR-RES = assay: as above; details: Homo sapiens, 48 h, read-out: Growth Percentage
CAKI-1 = assay: as above; details: Homo sapiens, CAKI-1, 48 h, read-out: Growth Percentage
RXF 393 = assay: as above; details: Homo sapiens, RXF 393, 48 h, read-out: Growth Percentage
PC-3 = assay: as above; details: Homo sapiens, PC-3, 48 h, read-out: Growth Percentage
DU-145 = assay: as above; details: Homo sapiens, DU-145, 48 h, read-out: Growth Percentage
MDA-MB-231/ATCC = assay: as above; details: Homo sapiens, MDA-MB-231, 48 h, read-out: Growth Percentage
HS 578T = assay: as above; details: Homo sapiens, 48 h, read-out: Growth Percentage
BT-549 = assay: as above; details: Homo sapiens, BT-549, 48 h, read-out: Growth Percentage
T-47D = assay: as above; details: Homo sapiens, T47D, 48 h, read-out: Growth Percentage

Question: How did the activity at 10 µM ([1]; read-out: growth percentages against most of the tested cells (lowest to highest)) turn out when Cc1ccc(/C=C/C(=O)c2sc(=S)[nH]c2C)cc1 [2j, (E)-1-(4-Methyl-2-Thioxo-2,3-Dihydrothiazol-5-yl)-3-(p-Tolyl)Prop-2-En-1-One] was run?
Answer: Its activity at 10 µM is 11.8 to 131%.

Question: What about the activity at 10 µM ([1]; mean over the tested cell lines, dose of 10 μM, read-out: Mean growth percentage) of the same compound?
Answer: Its activity at 10 µM is 63.3%.

Question: And the activity at 10 µM (HL-60(TB))?
Answer: Its activity at 10 µM is 61%.

Question: What about the activity at 10 µM (K-562) of the same compound?
Answer: The activity at 10 µM was 34.2%.

Question: What about the activity at 10 µM (MOLT-4) of the same compound?
Answer: The activity at 10 µM was 68.8%.

Question: What about the activity at 10 µM (RPMI-8226) of the same compound?
Answer: The activity at 10 µM was 18.9%.

Question: And the activity at 10 µM (SR)?
Answer: The activity at 10 µM was 45.5%.

Question: What about the activity at 10 µM (A549/ATCC) of the same compound?
Answer: The activity at 10 µM was 74.3%.

Question: What about the activity at 10 µM (HOP-62) of the same compound?
Answer: The activity at 10 µM was 54.1%.

Question: What about the activity at 10 µM (HOP-92) of the same compound?
Answer: The activity at 10 µM was 98%.

Question: What about the activity at 10 µM (COLO 205) of the same compound?
Answer: The activity at 10 µM was 122%.

Question: What about the activity at 10 µM (HCT-15) of the same compound?
Answer: Its activity at 10 µM is 38.6%.

Question: And the activity at 10 µM (HT29)?
Answer: The activity at 10 µM was 98.7%.

Question: What about the activity at 10 µM (KM12) of the same compound?
Answer: The activity at 10 µM was 29.8%.

Question: What about the activity at 10 µM (SF-268) of the same compound?
Answer: The activity at 10 µM was 86.9%.

Question: And the activity at 10 µM (LOX IMVI)?
Answer: Its activity at 10 µM is 31.2%.

Question: What about the activity at 10 µM (MALME-3M) of the same compound?
Answer: Its activity at 10 µM is 84.7%.

Question: What about the activity at 10 µM (SK-MEL-5) of the same compound?
Answer: Its activity at 10 µM is 56.1%.

Question: What about the activity at 10 µM (UACC-62) of the same compound?
Answer: The activity at 10 µM was 59.4%.

Question: And the activity at 10 µM (IGROV1)?
Answer: The activity at 10 µM was 83.4%.

Question: What about the activity at 10 µM (NCI/ADR-RES) of the same compound?
Answer: Its activity at 10 µM is 31%.

Question: What about the activity at 10 µM (CAKI-1) of the same compound?
Answer: Its activity at 10 µM is 43.4%.

Question: And the activity at 10 µM (RXF 393)?
Answer: The activity at 10 µM was 55.4%.

Question: What about the activity at 10 µM (PC-3) of the same compound?
Answer: The activity at 10 µM was 74.8%.

Question: And the activity at 10 µM (DU-145)?
Answer: The activity at 10 µM was 54.6%.

Question: What about the activity at 10 µM (MDA-MB-231/ATCC) of the same compound?
Answer: Its activity at 10 µM is 71.7%.

Question: What about the activity at 10 µM (HS 578T) of the same compound?
Answer: Its activity at 10 µM is 101%.

Question: And the activity at 10 µM (BT-549)?
Answer: The activity at 10 µM was 56.1%.

Question: What about the activity at 10 µM (T-47D) of the same compound?
Answer: The activity at 10 µM was 38.3%.
